{
  "source": "PubChem BioAssay (NCI)",
  "test_in_all_cases": "growth of human tumour cells (NCI), 48 h",
  "key": {"786-0 renal": {"system": "786-0 renal"}, "A498 renal": {"system": "A498 renal"}, "A549 NSCLC": {"system": "A549 NSCLC"}, "ACHN renal": {"system": "ACHN renal"}, "BT-549 breast": {"system": "BT-549 breast"}, "CAKI-1 renal": {"system": "CAKI-1 renal"}, "CCRF-CEM leukemia": {"system": "CCRF-CEM leukemia"}, "COLO 205 colon": {"system": "COLO 205 colon"}, "DU-145 prostate": {"system": "DU-145 prostate"}, "EKVX NSCLC": {"system": "EKVX NSCLC"}, "HCC-2998 colon": {"system": "HCC-2998 colon"}, "HCT-116 colon": {"system": "HCT-116 colon"}, "HCT-15 colon": {"system": "HCT-15 colon"}, "HL-60(TB) leukemia": {"system": "HL-60(TB) leukemia"}, "HOP-62 NSCLC": {"system": "HOP-62 NSCLC"}, "HS 578T breast": {"system": "HS 578T breast"}, "HT29 colon": {"system": "HT29 colon"}, "IGROV1 ovarian": {"system": "IGROV1 ovarian"}, "K-562 leukemia": {"system": "K-562 leukemia"}, "KM12 colon": {"system": "KM12 colon"}, "LOX IMVI melanoma": {"system": "LOX IMVI melanoma"}, "M14 melanoma": {"system": "M14 melanoma"}, "MALME-3M melanoma": {"system": "MALME-3M melanoma"}, "MCF7 breast": {"system": "MCF7 breast"}, "MDA-MB-231 breast": {"system": "MDA-MB-231 breast"}, "MDA-MB-435": {"system": "MDA-MB-435"}, "MDA-N": {"system": "MDA-N"}, "MOLT-4 leukemia": {"system": "MOLT-4 leukemia"}, "NCI-H226 lung": {"system": "NCI-H226 lung"}, "NCI-H23 lung": {"system": "NCI-H23 lung"}, "NCI-H522 lung": {"system": "NCI-H522 lung"}, "NCI/ADR-RES ovarian": {"system": "NCI/ADR-RES ovarian"}, "OVCAR-5 ovarian": {"system": "OVCAR-5 ovarian"}, "PC-3 prostate": {"system": "PC-3 prostate"}, "RPMI-8226 leukemia": {"system": "RPMI-8226 leukemia"}, "RXF 393 renal": {"system": "RXF 393 renal"}, "SF-268 CNS": {"system": "SF-268 CNS"}, "SF-295 CNS": {"system": "SF-295 CNS"}, "SF-539 CNS": {"system": "SF-539 CNS"}, "SK-MEL-2 melanoma": {"system": "SK-MEL-2 melanoma"}, "SK-MEL-28 melanoma": {"system": "SK-MEL-28 melanoma"}, "SK-MEL-5 melanoma": {"system": "SK-MEL-5 melanoma"}, "SK-OV-3 ovarian": {"system": "SK-OV-3 ovarian"}, "SN12C renal": {"system": "SN12C renal"}, "SNB-19 CNS": {"system": "SNB-19 CNS"}, "SNB-75 CNS": {"system": "SNB-75 CNS"}, "SR leukemia": {"system": "SR leukemia"}, "SW-620 colon": {"system": "SW-620 colon"}, "T-47D breast": {"system": "T-47D breast"}, "TK-10 renal": {"system": "TK-10 renal"}, "U251 CNS": {"system": "U251 CNS"}, "UACC-257 melanoma": {"system": "UACC-257 melanoma"}, "UO-31 renal": {"system": "UO-31 renal"}},
  "note": "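1) Cells in 96-well plates. 2) Compound, 48 h, 5 concentrations. 3) Linear interpolation between surrounding doses. 4) Unreached endpoint = highest concentration. TGI: concentration producing complete growth inhibition.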",
  "data": [
    {"smiles": "Nc1n[n+]([O-])c2ccc(Cl)cc2[n+]1[O-]", "values": [
      {"measurement": "TGI", "setting": "786-0 renal", "result": "> 100", "unit": "µM"},
      {"measurement": "TGI", "setting": "A498 renal", "result": 96.6, "unit": "µM"},
      {"measurement": "TGI", "setting": "A549 NSCLC", "result": "> 100", "unit": "µM"},
      {"measurement": "TGI", "setting": "ACHN renal", "result": "> 100", "unit": "µM"},
      {"measurement": "TGI", "setting": "BT-549 breast", "result": 29.2, "unit": "µM"},
      {"measurement": "TGI", "setting": "CAKI-1 renal", "result": 91.2, "unit": "µM"},
      {"measurement": "TGI", "setting": "CCRF-CEM leukemia", "result": "> 100", "unit": "µM"},
      {"measurement": "TGI", "setting": "COLO 205 colon", "result": 30.9, "unit": "µM"},
      {"measurement": "TGI", "setting": "DU-145 prostate", "result": "> 100", "unit": "µM"},
      {"measurement": "TGI", "setting": "EKVX NSCLC", "result": 80.1, "unit": "µM"},
      {"measurement": "TGI", "setting": "HCC-2998 colon", "result": 55.5, "unit": "µM"},
      {"measurement": "TGI", "setting": "HCT-116 colon", "result": "> 100", "unit": "µM"},
      {"measurement": "TGI", "setting": "HCT-15 colon", "result": 58.9, "unit": "µM"},
      {"measurement": "TGI", "setting": "HL-60(TB) leukemia", "result": "> 100", "unit": "µM"},
      {"measurement": "TGI", "setting": "HOP-62 NSCLC", "result": 79.7, "unit": "µM"},
      {"measurement": "TGI", "setting": "HS 578T breast", "result": "> 100", "unit": "µM"},
      {"measurement": "TGI", "setting": "HT29 colon", "result": 77, "unit": "µM"},
      {"measurement": "TGI", "setting": "IGROV1 ovarian", "result": 25.3, "unit": "µM"},
      {"measurement": "TGI", "setting": "K-562 leukemia", "result": "> 100", "unit": "µM"},
      {"measurement": "TGI", "setting": "KM12 colon", "result": 32.6, "unit": "µM"},
      {"measurement": "TGI", "setting": "LOX IMVI melanoma", "result": "> 100", "unit": "µM"},
      {"measurement": "TGI", "setting": "M14 melanoma", "result": 40.4, "unit": "µM"},
      {"measurement": "TGI", "setting": "MALME-3M melanoma", "result": 59, "unit": "µM"},
      {"measurement": "TGI", "setting": "MCF7 breast", "result": "> 100", "unit": "µM"},
      {"measurement": "TGI", "setting": "MDA-MB-231 breast", "result": "> 100", "unit": "µM"},
      {"measurement": "TGI", "setting": "MDA-MB-435", "result": 74.2, "unit": "µM"},
      {"measurement": "TGI", "setting": "MDA-N", "result": 73.5, "unit": "µM"},
      {"measurement": "TGI", "setting": "MOLT-4 leukemia", "result": "> 100", "unit": "µM"},
      {"measurement": "TGI", "setting": "NCI-H226 lung", "result": 72.9, "unit": "µM"},
      {"measurement": "TGI", "setting": "NCI-H23 lung", "result": 46.4, "unit": "µM"},
      {"measurement": "TGI", "setting": "NCI-H522 lung", "result": 38.2, "unit": "µM"},
      {"measurement": "TGI", "setting": "NCI/ADR-RES ovarian", "result": "> 100", "unit": "µM"},
      {"measurement": "TGI", "setting": "OVCAR-5 ovarian", "result": 79, "unit": "µM"},
      {"measurement": "TGI", "setting": "PC-3 prostate", "result": "> 100", "unit": "µM"},
      {"measurement": "TGI", "setting": "RPMI-8226 leukemia", "result": "> 100", "unit": "µM"},
      {"measurement": "TGI", "setting": "RXF 393 renal", "result": 54.1, "unit": "µM"},
      {"measurement": "TGI", "setting": "SF-268 CNS", "result": "> 100", "unit": "µM"},
      {"measurement": "TGI", "setting": "SF-295 CNS", "result": "> 100", "unit": "µM"},
      {"measurement": "TGI", "setting": "SF-539 CNS", "result": 58.7, "unit": "µM"},
      {"measurement": "TGI", "setting": "SK-MEL-2 melanoma", "result": "> 100", "unit": "µM"},
      {"measurement": "TGI", "setting": "SK-MEL-28 melanoma", "result": 67.7, "unit": "µM"},
      {"measurement": "TGI", "setting": "SK-MEL-5 melanoma", "result": 16.5, "unit": "µM"},
      {"measurement": "TGI", "setting": "SK-OV-3 ovarian", "result": 52.9, "unit": "µM"},
      {"measurement": "TGI", "setting": "SN12C renal", "result": "> 100", "unit": "µM"},
      {"measurement": "TGI", "setting": "SNB-19 CNS", "result": "> 100", "unit": "µM"},
      {"measurement": "TGI", "setting": "SNB-75 CNS", "result": "> 100", "unit": "µM"},
      {"measurement": "TGI", "setting": "SR leukemia", "result": "> 100", "unit": "µM"},
      {"measurement": "TGI", "setting": "SW-620 colon", "result": 61.2, "unit": "µM"},
      {"measurement": "TGI", "setting": "T-47D breast", "result": 99.4, "unit": "µM"},
      {"measurement": "TGI", "setting": "TK-10 renal", "result": "> 100", "unit": "µM"},
      {"measurement": "TGI", "setting": "U251 CNS", "result": 67.3, "unit": "µM"},
      {"measurement": "TGI", "setting": "UACC-257 melanoma", "result": 54.3, "unit": "µM"},
      {"measurement": "TGI", "setting": "UO-31 renal", "result": "> 100", "unit": "µM"}
    ]}
  ]
}
